Target: T1, TRPM8 (Rattus norvegicus, UniProt Q8R455)
T1 construct: from tissue; host or cells: whole animal, female SD rats (in vivo)
Assay: Confirmation test of inhibitory effects on icilin-induced wet-dog shakes
Type: in vivo
Conditions: female SD rats, oral dose 1 mg/kg, icilin 1 mg/kg i.p. 1 hour after dosing, shakes counted for 5 minutes
Text: Further, TRPM8 inhibitory activity can be evaluated by the efficacy inhibiting the wet-dog shake action which is induced by the administration of Icilin, TRPM8 agonist. Furthermore, an effect on overactive bladder (OAB) can be evaluated by an elongation of micturition interval against overactive bladder induced by acetic acid in accordance with a similar method described in J. Urol., 2001, 166, 1142.
Confirmation Test of Inhibitory Effects on Icilin-induced Wet-dog Shakes
Test compounds were dissolved in dimethylacetamide (wako), and 0.5% methylcellulose solution (wako) was added to make the solution or suspension containing 5% of dimethylacetatnide. At a dose of 0.3 to 10 mg/kg/5mL of test compounds were orally administered to female SD rats. After 1 hour, wet-dog shakes were induced by the intraperitoneal injection of icilin (1 mg/kg) which was dissolved in polyethylene glycol 400 (wako). From 5 minutes after the administration of icilin, wet-dog shakes were counted for 5 minutes. For control example, vehicle (a mixture of dimethylacetamide (wako): 0.5% methylcellulose (wako)=5:95) was administrated similarly, and the number of wet-dog shakes was counted in the same manner. A percent inhibition of wet-dog shakes by test compound was calculated from the following formula: [1-(test compound wet-dog shake count/vehicle wet-dog shake count)]×100.

T1 sequence (Q8R455 whole entry): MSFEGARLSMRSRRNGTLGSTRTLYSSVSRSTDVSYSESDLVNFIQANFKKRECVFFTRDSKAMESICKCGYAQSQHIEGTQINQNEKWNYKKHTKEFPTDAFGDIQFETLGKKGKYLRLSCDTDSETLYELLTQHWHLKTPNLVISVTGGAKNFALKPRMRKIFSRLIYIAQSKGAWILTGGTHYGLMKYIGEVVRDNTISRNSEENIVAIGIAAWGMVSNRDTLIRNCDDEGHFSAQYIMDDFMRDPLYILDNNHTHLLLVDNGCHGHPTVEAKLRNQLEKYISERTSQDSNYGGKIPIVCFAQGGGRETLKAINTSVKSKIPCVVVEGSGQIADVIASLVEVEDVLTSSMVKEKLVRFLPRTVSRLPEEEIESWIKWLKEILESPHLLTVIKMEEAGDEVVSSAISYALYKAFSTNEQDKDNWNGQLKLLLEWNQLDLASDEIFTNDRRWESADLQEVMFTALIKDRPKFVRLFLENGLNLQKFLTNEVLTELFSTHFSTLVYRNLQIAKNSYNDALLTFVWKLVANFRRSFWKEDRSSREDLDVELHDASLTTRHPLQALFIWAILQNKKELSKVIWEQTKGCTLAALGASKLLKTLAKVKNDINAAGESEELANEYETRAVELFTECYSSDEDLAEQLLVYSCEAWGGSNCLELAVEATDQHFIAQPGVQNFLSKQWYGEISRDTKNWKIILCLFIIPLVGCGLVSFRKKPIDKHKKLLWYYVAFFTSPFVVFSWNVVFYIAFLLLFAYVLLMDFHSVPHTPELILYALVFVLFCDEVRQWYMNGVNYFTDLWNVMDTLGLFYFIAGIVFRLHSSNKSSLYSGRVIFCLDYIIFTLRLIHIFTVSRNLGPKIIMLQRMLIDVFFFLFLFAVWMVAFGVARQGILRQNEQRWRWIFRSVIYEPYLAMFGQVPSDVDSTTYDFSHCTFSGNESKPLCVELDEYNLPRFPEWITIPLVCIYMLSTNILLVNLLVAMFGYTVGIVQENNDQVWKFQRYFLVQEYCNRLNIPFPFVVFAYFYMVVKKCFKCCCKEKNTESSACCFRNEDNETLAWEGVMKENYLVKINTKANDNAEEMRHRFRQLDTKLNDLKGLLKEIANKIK

% inhibition of Wet-Dog Shake [%]	SMILES
56	O=C(N[C@@H]([C@H](O)CO)C(F)(F)c1ccccn1)c1cccc(F)c1-c1cc(-c2ccc(F)cc2)[nH]n1 [Example 1-229]
59	O=C(N[C@@H](CO)C(F)(F)c1ccccn1)c1cccc(F)c1-c1cc(-c2ccc(F)cc2)[nH]n1 [Example 1-230]
73	CO[C@H](CO)[C@@H](Cc1ncccn1)NC(=O)c1cccc(F)c1-c1cc(-c2ccc(Cl)cc2)[nH]n1 [Example 1-242]
55	O=C(N[C@H](Cn1cccn1)[C@H](O)CF)c1cccc(F)c1-c1cc(-c2ccc(F)cc2)[nH]n1 [Example 1-245]
72	COC[C@@H](O)[C@@H](Cc1ccccn1)NC(=O)c1cccc(F)c1-c1cc(-c2ccc(F)cc2)[nH]n1 [Example 27-4]
86	CO[C@H](CO)[C@@H](Cc1ncccn1)NC(=O)c1cccc(F)c1-c1n[nH]c(-c2ccc(F)cc2)c1F [Example 27-18]
80	CO[C@H](CO)[C@@H](Cc1nccs1)NC(=O)c1cccc(F)c1-c1cc(-c2ccc(F)cc2)[nH]n1 [Example 27-19]

Same assay, conditions: female SD rats, oral dose 3 mg/kg, icilin 1 mg/kg i.p. 1 hour after dosing, shakes counted for 5 minutes

% inhibition of Wet-Dog Shake [%]	SMILES
53	O=C(N[C@H](Cn1cccn1)[C@H](O)CO)c1cccc(F)c1-c1cc(-c2ccc(F)cc2)[nH]n1 [Example 1-226]
97	C[C@@](O)(CO)[C@@H](Cc1ccccn1)NC(=O)c1ccccc1-c1cc(-c2ccc(F)cc2)[nH]n1 [Example 1-228]
88	O=C(N[C@@H](CO)C(F)c1ccccn1)c1cccc(F)c1-c1cc(-c2ccc(F)cc2)[nH]n1 (stereo partly shown) [Example 1-231]
100	CC(O)(c1ccccn1)[C@H](CO)NC(=O)c1cccc(F)c1-c1cc(-c2ccc(F)cc2)[nH]n1 (stereo partly shown) [Example 1-241]
71	C[C@@](Cc1ccccc1)(NC(=O)c1cccc(F)c1-c1cc(-c2ccc(F)cc2)[nH]n1)C(N)=O [Example 24-1, (2S)-2-{3-Fluoro-2-[5-(4-fluorophenyl)-1H-pyrazol-3-yl]benzoylamino}-2-methyl-3-phenylpropanamide]
46	C[C@@](Cc1ccccc1)(NC(=O)c1ccccc1-c1cc(-c2ccc(F)cc2)[nH]n1)C(N)=O [Example 24-3]
31	C[C@](CCO)(Cc1ccccn1)NC(=O)c1cccc(F)c1-c1cc(-c2ccc(F)cc2)[nH]n1 [Example 24-4]
56	C[C@@](Cc1ccccn1)(NC(=O)c1cccc(F)c1-c1cc(-c2ccc(F)cc2)[nH]n1)C(N)=O [Example 24-7]
89	O=C(NC(CCO)Cc1ccccn1)c1cccc(F)c1-c1cc(-c2ccc(F)cc2)[nH]n1 (stereo not shown) [Example 26-1, 3-Fluoro-2-[5-(4-fluorophenyl)-1H-pyrazol-3-yl]-N-[4-hydroxy-1-(pyridin-2-yl)butan-2-yl]benzamide]
69	O=C(NC(CCO)Cc1ccccn1)c1ccccc1-c1cc(-c2ccc(F)cc2)[nH]n1 (stereo not shown) [Example 26-2]
52	COC[C@@H](O)[C@@H](Cc1ccccn1)NC(=O)c1cccc(Cl)c1-c1cc(-c2ccc(F)cc2)[nH]n1 [Example 27-5]
56	CO[C@H](CO)[C@@H](Cc1ncccc1C#N)NC(=O)c1cccc(F)c1-c1cc(-c2ccc(F)cc2)[nH]n1 [Example 27-16]
86	CO[C@@H](CO)[C@@H](Cn1cccn1)NC(=O)c1cccc(F)c1-c1cc(-c2ccc(F)cc2)[nH]n1 [Example 27-17]

Same assay, conditions: female SD rats, oral dose 10 mg/kg, icilin 1 mg/kg i.p. 1 hour after dosing, shakes counted for 5 minutes

% inhibition of Wet-Dog Shake [%]	SMILES
70	O=C(NCCc1ccccn1)c1cccc(OC(F)(F)F)c1-c1cc(-c2ccccc2)[nH]n1 [Example 4-1, 2-(5-Phenyl-1H-pyrazol-3-yl)-N-[2-(pyridin-2-yl)ethyl]-3-trifluoromethoxybenzamide]
51	NC[C@@H](Cc1ccccn1)NC(=O)c1ccccc1-c1cc(-c2ccc(F)c(F)c2)[nH]n1 [Example 16-11]
